≈ marks a conversion by molar mass, not a printed value. Where “and” joins values, the source holds several entries; their conditions need not be identical. Equal values may be shown once. Read-outs that look alike come from different tables or passages of the source.
Key:
[1] = tested on: Mycobacterium tuberculosis H37Rv; test: in vitro primary screening assay in BACTEC 12B medium, BACTEC 460 radiometric system; type: cell-based; settings: for inhibition at 12.5 µg/mL: H37RV; for MIC: M. tuberculosis H37Rv
Mtb = settings: against Mtb, background section; cited from earlier work
M. tuberculosis H37Rv = test: actual minimum inhibitory concentration (MIC) at lower concentrations, BACTEC 460; type: cell-based; settings: Mycobacterium tuberculosis, lowest concentration inhibiting 99% of the inoculum
[2] = concentration 12.5 μg/mL, BACTEC 12B medium
[3] = Mycobacterium tuberculosis, concentration 12.5 μg/mL, BACTEC 12B medium, read-out: inhibition against Mtb H37Rv
[4] = Mycobacterium tuberculosis, table of Example 38, 12.5 μg/mL, read-out: % Inhibition
[5] = Mycobacterium tuberculosis, table of Example 38, read-out: MIC
[6] = table of Example 38, 12.5 μg/mL

| Compound | inhibition against Mtb H37Rv [1, 2] | % Inhibition [1, 6] [%] | MIC ([1]; table of Example 38) [µg/mL] | further results |
| --- | --- | --- | --- | --- |
| (−)-Calanolide A | 98% |  |  |  |
| NC(=O)c1cnccn1 [Pyrazinamide] |  |  |  | MIC (Mtb): 20 µg/mL (≈ 162 µM) |
| CO[C@H]1/C=C/O[C@@]2(C)Oc3c(C)c(O)c4c(O)c(c(/C=N/N5CCN(C)CC5)c(O)c4c3C2=O)NC(=O)/C(C)=C\C=C\[C@H](C)[C@H](O)[C@@H](C)[C@@H](O)[C@@H](C)[C@H](OC(C)=O)[C@@H]1C [rifampicin] |  |  |  | MIC (M. tuberculosis H37Rv): 0.06 µg/mL (≈ 0.0729 µM) |
| CCCc1cc(=O)oc2c3c(c4c(c12)OC(C)(C)C=C4)O[C@@H](C)[C@H](C)[C@@H]3O [Costatolide, (−)-calanolide B] |  |  |  | inhibition at 12.5 µg/mL [1, 3]: 99%; inhibition at 12.5 µg/mL [1, 4]: 99%; MIC [1, 5]: < 12.5 µg/mL |
| CCCc1cc(=O)oc2c3c(c4c(c12)OC(C)(C)C=C4)OC(C)C(C)C3=O (racemic) [(±)-Trans-ketone, 10,11-trans-dihydro-4-propyl-6,6,10,11-tetramethyl-2 H,6 H,12 H-benzo[1,2-b:3,4b′:5,6-b″]-tripyran-2,12-dione] |  | 59 | <12.5 |  |
| C[C@H]1[C@H](C)Oc2c3c(c4c(-c5ccccc5)cc(=O)oc4c2[C@H]1O)OC(C)(C)C=C3 [Soulattrolide] |  |  |  | inhibition at 12.5 µg/mL [1, 3]: 99%; inhibition at 12.5 µg/mL [1, 4]: 99%; MIC [1, 5]: < 12.5 µg/mL |
| CCCc1cc(=O)oc2c3c(c4c(c12)OC(C)(C)C=C4)OC(C)C(C)C3=O (single isomer, unassigned; (-)) [(−)-Trans-ketone] |  | 78 | <12.5 |  |
| CCCc1cc(=O)oc2c3c(c4c(c12)OC(C)(C)CC4)OC(C)C(C)C3=O (racemic) [(±)-Trans-dihydroketone, (±)-10,11-trans-4-Propyl-7,8,10,11-tetrahydro-6,6,10,11-tetramethyl-2 H,6 H,12 H-benzo[1,2-b:3,4-b′:5,6-b″]tripyran-2,12-dione] |  | 43 | <12.5 |  |
| (−)-7,8-dihydrosoulattrolide [(−)-7,8-Dihydrosoulatrolide] | 99% | 99 | <12.5 |  |
| (+)-Calanolide A | 98% and 96% |  |  |  |

Source: patent publication US20010027209A1, “Method and composition for treating and preventing mycobacterium infections” (Sarawak Medichem Pharmaceuticals, Inc., priority 1998, published 2001)
